# Source: BindingDB's records for doi:10.1007/s10822-022-00478-x (Roche Innovation Center Basel, F. Hoffmann-La Roche Ltd., 2022)
# Biological target: cAMP and cAMP-inhibited cGMP 3',5'-cyclic phosphodiesterase 10A (Homo sapiens, UniProt Q9Y233)
# Experiment: PDE10A assay
# Summary of the method: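 Scintillation proximity readout of [3H]cGMP hydrolysis (50 nM final substrate, 15 min) by 2 ng/well human PDE10A after 15 min compound preincubation at RT, pH 7.5 with MgCl2. Four-parameter logistic fit gave IC50, reported as pIC50.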
row,SMILES,IC50 [nM]
1,"Cc1c(Cl)cc(C(F)(F)F)c2nc(CCc3nc(I)nn3C)nn12 [Roche-Dataset for PDE10A, Compound 615]",123
2,"Cc1ncc(C)n2nc(/C=C/c3nc(-c4cc[nH]n4)nn3C)nc12 [Roche-Dataset for PDE10A, Compound 618]",46
3,"CNC(=O)c1cc2[nH]c(-c3ccccc3)nc2cc1NC(=O)c1cc[nH]n1 [Roche-Dataset for PDE10A, Compound 619]",390
4,"Cc1ncc(C)n2nc(CCc3nc(N4CCCC4)nn3C)nc12 [Roche-Dataset for PDE10A, Compound 626]",2.3
5,"Cc1ncc(C)n2nc(/C=C/c3ncn(-c4ccccc4)n3)nc12 [Roche-Dataset for PDE10A, Compound 629]",162
6,"COc1cnc(C)n2c(CCc3nc(N4CCCC4)nn3C)nnc12 [Roche-Dataset for PDE10A, Compound 633]",4190
7,"Cn1nc(-c2ccc(C(F)(F)F)cn2)cc1NC(=O)c1c(C(=O)N2CCC2)cnn1C [Roche-Dataset for PDE10A, Compound 634]",26
8,"Cn1nc(-c2ccccn2)cc1NC(=O)c1cc(Br)c[nH]c1=O [Roche-Dataset for PDE10A, Compound 636]",295
9,"Cn1cc(-c2ccccc2)nc1COc1nc2ccccc2nc1C(F)(F)F [Roche-Dataset for PDE10A, Compound 644]",26
10,"Cc1ncc(C)n2nc(/C=C/c3nc(Br)cn3-c3ccccc3)nc12 [Roche-Dataset for PDE10A, Compound 648]",202
11,"CN(c1nc2cc(NC(=O)c3c(C(=O)O)cnn3C)ccn2n1)C1CC1 [Roche-Dataset for PDE10A, Compound 649]",42
12,"CNC(=O)c1cc2[nH]c(-c3ccccc3)nc2cc1NC(=O)c1cc(C(C)(C)C)nn1C [Roche-Dataset for PDE10A, Compound 650]",114
13,"CN(C)c1nc2ccc(NC(=O)c3c(C(=O)N4CCC4)cnn3C)cn2n1 [Roche-Dataset for PDE10A, Compound 652]",8.76
14,"CCn1nccc1NC(=O)c1ccc2cc(-c3ccccc3)nn2c1 [Roche-Dataset for PDE10A, Compound 654]",575
15,"Cn1nc(-c2ccccn2)cc1NC(=O)c1cccc2c1OCCO2 [Roche-Dataset for PDE10A, Compound 655]",10000
16,"CNC(=O)c1cnn(C)c1C(=O)Nc1ccn2cc(-c3cccc(F)c3)nc2n1 [Roche-Dataset for PDE10A, Compound 656]",62
17,"Cc1ncc(Br)c2nc(CCc3nc(N4CCCC4)nn3C)nn12 [Roche-Dataset for PDE10A, Compound 658]",34
18,"COC(=O)c1cccnc1C(=O)Nc1ccn2nc(-c3ccccc3)nc2c1 [Roche-Dataset for PDE10A, Compound 659]",2720

row,SMILES,IC50 [nM]
1,"Cn1nc(-c2ccccn2)cc1NC(=O)c1ccn(CC(F)(F)F)n1 [Roche-Dataset for PDE10A, Compound 662]",10000
2,"Cc1c(Cl)cc(Cl)c2nc(CCc3cn4ccccc4n3)nn12 [Roche-Dataset for PDE10A, Compound 663]",9.41
3,"Cn1ncc(C(=O)N2CCC2)c1C(=O)Nc1cc(-c2ccccn2)n[nH]1 [Roche-Dataset for PDE10A, Compound 664]",8.3
4,"Cn1ncc(C(=O)N2CCC2)c1C(=O)Nc1ccn(Cc2cn(-c3ccc(Cl)c(Cl)c3)cn2)n1 [Roche-Dataset for PDE10A, Compound 669]",80
5,"COc1cnc(C)n2nc(CCc3nc(N4CCCC4)nn3C)nc12 [Roche-Dataset for PDE10A, Compound 671]",11
6,"Cc1ncc(C(C)C)c2nc(CCc3nc(N4CCCC4)nn3C)nn12 [Roche-Dataset for PDE10A, Compound 672]",7.01
7,"CNC(=O)c1cn(C)c(CCc2nc3c(C)ncc(C)n3n2)n1 [Roche-Dataset for PDE10A, Compound 675]",228
8,"Cc1cn2nc(CCc3nc(N4CCCC4)nn3C)nc2cn1 [Roche-Dataset for PDE10A, Compound 678]",929
9,"O=C(Nc1ccc2cc(-c3ccccc3)nn2c1)c1ccno1 [Roche-Dataset for PDE10A, Compound 679]",2360
10,"Cc1ccc(C(=O)Nc2ccn3nc(-c4ccccc4)nc3c2)cn1 [Roche-Dataset for PDE10A, Compound 684]",4670
11,"Cc1nc2nc(CCc3nc(-c4ccccc4)cn3C)[nH]c(=O)c2n1C [Roche-Dataset for PDE10A, Compound 687]",331
12,"Cc1ncc(C)n2nc(/C=C/c3nc(N4CCC[C@H]4CF)nn3C)nc12 [Roche-Dataset for PDE10A, Compound 691]",787
13,"COc1c(C)cnc(CCc2ccc3ccccc3n2)c1C [Roche-Dataset for PDE10A, Compound 701]",1480
14,"CNc1nc2cc(NC(=O)c3c(C(=O)N4CCC4)cnn3C)ccn2n1 [Roche-Dataset for PDE10A, Compound 704]",7.7
15,"Cc1ncc(O)c2nc(CCc3nc(N4CCCC4)nn3C)nn12 [Roche-Dataset for PDE10A, Compound 705]",140
16,"Cn1nc(-c2ccccn2)cc1NC(=O)c1cccn(C)c1=O [Roche-Dataset for PDE10A, Compound 710]",4410
17,"CNC(=O)c1cc2[nH]c(-c3ccccc3)nc2cc1NC(=O)c1cc(C)n(C(C)(C)C)n1 [Roche-Dataset for PDE10A, Compound 713]",76
18,"Cc1nccc2nc(CCc3nc(N4CCCC4)nn3C)nn12 [Roche-Dataset for PDE10A, Compound 714]",84

# The remaining lines, values ahead:
row,IC50 [nM],SMILES
1,69,"O=C(Nc1cnn(Cc2ccccc2)c1)c1nc(C2CC2)ccc1Nc1cncnc1 [Roche-Dataset for PDE10A, Compound 614]"
2,0.09,"CNC(=O)c1cc2[nH]c(-c3ccccc3)nc2cc1NC(=O)c1nc(C2CC2)ccc1Nc1cncnc1 [Roche-Dataset for PDE10A, Compound 621]"
3,5.89,"CC(C)Cn1ccc(NC(=O)c2nc(C3CC3)ccc2Nc2cncnc2)n1 [Roche-Dataset for PDE10A, Compound 624]"
4,1230,"O=C(Nc1ccnc(Cl)n1)c1cn(-c2ccc3ccccc3n2)cn1 [Roche-Dataset for PDE10A, Compound 627]"
5,273,"O=C(NCc1nccn1Cc1ccccc1)c1nc(C2CC2)cnc1Nc1cncnc1 [Roche-Dataset for PDE10A, Compound 631]"
6,19,"O=C(Nc1ccn(C2CCCCC2)n1)c1nc(C2CC2)ccc1Nc1cncnc1 [Roche-Dataset for PDE10A, Compound 632]"
7,18,"O=C(Nc1ccn(S(=O)(=O)C(F)(F)F)n1)c1nc(C2CC2)ccc1Nc1cncnc1 [Roche-Dataset for PDE10A, Compound 635]"
8,14,"COCCn1ccc(NC(=O)c2nc(C3CC3)ccc2Nc2cncnc2)n1 [Roche-Dataset for PDE10A, Compound 640]"
9,1430,"O=C(N[C@@H](CO)Cc1ccccc1)c1nc(C2CC2)cnc1Nc1cncnc1 [Roche-Dataset for PDE10A, Compound 641]"
10,46,"O=C(Nc1ccnn1CC(F)F)c1nc(C2CC2)ccc1Nc1cncnc1 [Roche-Dataset for PDE10A, Compound 642]"
11,14,"CCCn1ccc(NC(=O)c2nc(C3CC3)ccc2Nc2cncnc2)n1 [Roche-Dataset for PDE10A, Compound 643]"
12,375,"O=C(Nc1cc(C2CCCC2)n[nH]1)c1nc(C2CC2)ccc1Nc1cncnc1 [Roche-Dataset for PDE10A, Compound 653]"
13,954,"O=C(NC[C@@H]1[C@@H](c2ccccc2)C1(F)F)c1nc(C2CC2)cnc1Nc1cncnc1 [Roche-Dataset for PDE10A, Compound 661]"
14,822,"O=C(NCCCS(=O)(=O)c1ccccc1)c1nc(C2CC2)cnc1Nc1cncnc1 [Roche-Dataset for PDE10A, Compound 665]"
15,2380,"CCOc1ccccc1C(=O)Nc1cc(-c2ccccn2)nn1C [Roche-Dataset for PDE10A, Compound 666]"
16,13,"O=C(Nc1ccccc1C(=O)C1CCCCC1)c1nc(C2CC2)cnc1Nc1cncnc1 [Roche-Dataset for PDE10A, Compound 667]"
17,100,"O=C(NCc1ccc(C(F)(F)F)cc1)c1nc(C2CC2)cnc1Nc1cncnc1 [Roche-Dataset for PDE10A, Compound 668]"
18,439,"Cn1nc(C2CCCC2)cc1NC(=O)c1nc(C2CC2)ccc1Nc1cncnc1 [Roche-Dataset for PDE10A, Compound 677]"
19,53,"O=C(NCc1cn(-c2ccccc2)cn1)c1nc(C2CC2)cnc1Nc1cncnc1 [Roche-Dataset for PDE10A, Compound 682]"
20,43,"O=C(Nc1ccc(N2CCOCC2=O)cc1)c1nc(C2CC2)ccc1Nc1cncnc1 [Roche-Dataset for PDE10A, Compound 686]"
21,48,"CC(C)n1ccc(NC(=O)c2nc(C3CC3)ccc2Nc2cncnc2)n1 [Roche-Dataset for PDE10A, Compound 692]"
22,97,"CN(C)C(=O)Cc1cccc(NC(=O)c2nc(C3CC3)cnc2Nc2cncnc2)c1 [Roche-Dataset for PDE10A, Compound 693]"
23,16,"O=C(Nc1cccc(OCC(F)(F)F)c1)c1nc(C2CC2)cnc1Nc1cncnc1 [Roche-Dataset for PDE10A, Compound 694]"
24,21,"O=C(Nc1ccn(C2CCC2)n1)c1nc(C2CC2)ccc1Nc1cncnc1 [Roche-Dataset for PDE10A, Compound 695]"
25,9.84,"O=C(Nc1ccn(CCF)n1)c1nc(C2CC2)ccc1Nc1cncnc1 [Roche-Dataset for PDE10A, Compound 698]"
26,141,"O=C(NCc1ccc2nccnc2c1)c1nc(C2CC2)cnc1Nc1cncnc1 [Roche-Dataset for PDE10A, Compound 699]"
27,13,"O=C(Nc1cccc(N2CCC(O)CC2)c1)c1nc(C2CC2)cnc1Nc1cncnc1 [Roche-Dataset for PDE10A, Compound 703]"
28,18,"Cn1nc(-c2ccccn2)cc1NC(=O)c1c(Nc2cncnc2)cc[nH]c1=O [Roche-Dataset for PDE10A, Compound 711]"
29,26,"O=C(Nc1ccn(C2CC2)n1)c1nc(C2CC2)ccc1Nc1cncnc1 [Roche-Dataset for PDE10A, Compound 715]"
